In paper PMC5562805, “Overcoming the plasticity of plant specialized metabolism for selective diterpene production in yeast” (Scientific Reports, 2017):

Target: T1, CYP76AK6 (Salvia pomifera, UniProt A0A0S1TPC7)
T1 construct: expressed in S. cerevisiae (pESC-Trp) with CYP76AH24 variant and Populus trichocarpa CPR2
T1 sequence (A0A0S1TPC7 1-500): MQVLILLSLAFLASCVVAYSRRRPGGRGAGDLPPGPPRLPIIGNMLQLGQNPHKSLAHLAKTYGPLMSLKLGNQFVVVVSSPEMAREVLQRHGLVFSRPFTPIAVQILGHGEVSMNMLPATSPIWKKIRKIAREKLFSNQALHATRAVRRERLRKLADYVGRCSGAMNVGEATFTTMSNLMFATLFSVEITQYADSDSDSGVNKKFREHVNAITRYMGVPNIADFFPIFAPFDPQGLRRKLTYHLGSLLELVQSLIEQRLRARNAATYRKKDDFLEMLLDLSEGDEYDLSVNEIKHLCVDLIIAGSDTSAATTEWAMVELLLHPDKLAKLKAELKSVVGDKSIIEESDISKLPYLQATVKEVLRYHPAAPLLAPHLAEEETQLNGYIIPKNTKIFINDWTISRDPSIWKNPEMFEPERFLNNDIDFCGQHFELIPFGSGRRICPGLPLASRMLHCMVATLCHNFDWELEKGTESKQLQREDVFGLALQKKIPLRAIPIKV
Experiment: product titre in engineered yeast cells, GC
Assay type: cell-based
Conditions: C-20 oxidation to pisiferic acid; co-expressed CYP76AH24(F112L), CPR2, Cytb5

CC(C)c1cc2c(cc1O)[C@@]1(C)CCCC(C)(C)[C@@H]1CC2 [ferruginol]
product titre in engineered yeast cells, GC: CYP76AH24(F112L) variant enabled the complete shift from carnosic acid to pisiferic acid production in yeast
